# Measured values from paper PMC8151276, “An Integrated Approach toward NanoBRET Tracers for Analysis of GPCR Ligand Engagement” (Molecules, 2021).
# Columns and labels:
# Format in all cases: binding
# [1] = target: T1, OXTR (Homo sapiens, UniProt P30559); assay: NanoBRET screen HiBiT-OXTR in HEK293
# T1 construct: purchased Promega (in-house HiBiT-GPCR construct library, NanoBRET)
# T1 sequence (P30559 1-389): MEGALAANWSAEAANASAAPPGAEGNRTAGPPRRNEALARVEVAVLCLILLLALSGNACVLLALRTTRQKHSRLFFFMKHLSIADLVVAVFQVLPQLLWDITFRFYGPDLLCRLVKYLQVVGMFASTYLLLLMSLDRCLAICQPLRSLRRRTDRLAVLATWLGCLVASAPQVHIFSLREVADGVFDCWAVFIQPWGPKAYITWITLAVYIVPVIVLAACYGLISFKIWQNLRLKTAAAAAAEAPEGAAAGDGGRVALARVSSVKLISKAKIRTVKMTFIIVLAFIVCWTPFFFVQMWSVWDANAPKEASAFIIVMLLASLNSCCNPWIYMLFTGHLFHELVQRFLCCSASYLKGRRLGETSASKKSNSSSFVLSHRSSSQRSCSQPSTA
# Procedure: (§1) Each tracer candidate was screened across the entire library of HiBiT-GPCR constructs using NanoBRET as the detection modality. As depicted in Figure 4A, the specificity of interactions was evaluated through decrease in BRET due to competitive displacement of a bound tracer by excess parental compound. Each tracer was analyzed for binding to each HiBiT-GPCR fusion in the absence and in the presence of competing parental compound. Briefly, HEK293 cells were transfected with HiBiT-GPCR constructs diluted into promoterless DNA to reduce expression and maximize translocation to the cell surface. Each tracer candidate was then screened at concentrations of 1 μM and 0.1 μM across cells expressing these fusions. Cells were treated for 1.5 h with tracer either alone or in the presence of 20 μM competing parental compound (i.e., control). BRET was measured upon addition of purified LgBiT and subsequent complementation with HiBiT genetically fused to a GPCR. The specificity of interactions was assessed through a decrease in BRET signal due to competitive displacement of the bound tracer. To further gauge the robustness of these interactions, the fold response over the control (i.e., BRETtracer/BRETcontrol) was calculated. We chose a 1.5-fold response, which translates to ≥7-fold signal over noise as the minimal threshold required to score an interaction as positive. […]. Below we highlight the screening results obtained for our exemplary fluorescent tracers based on Clozapine, Amitriptyline and AZD1283.
# (§2) HiBiT-GPCR DNA constructs were diluted in 10 mM Tris pH 8 to a final concentration of 0.01 μg/μL, arrayed in 96-well plates and stored at −20 °C. For transfection, HEK293 cells were suspended in Opti-MEM (without phenol red) supplemented with 2% fetal bovine serum (Seradigm) and 100 units/mL penicillin–streptomycin (Gibco) at a final concentration of 220,000 cells/mL and dispensed into white 96-well plates at 90 μL/well. Subsequent transfections and screens were carried using an Agilent Bravo Automated Liquid Handling Platform. First, the 96-well HiBiT DNA arrays were diluted 25-fold in Opti-MEM (without serum or phenol red) to a final concentration of 0.0004 μg/μL and 20 μL of the diluted DNAs were transferred into new 96-well plates. Next, promoterless carrier DNA (1 μg/μL) was diluted 25-fold (0.04 μg/μL) and then dispensed into the diluted arrays at 20 μL/well. Following brief mixing, Viafect transfection reagent (Promega) diluted 16-fold into Opti-MEM was dispensed into the plates at 40 μL/well. After mixing by pipetting, plates were incubated for 10 min on the pipetting station deck. The DNA-transfection reagent complexes were then added to plates containing cells. To facilitate the screen, 10 μL of DNA-transfection reagent complexes were added in duplicates to the top 4 and bottom 4 rows, resulting in two identical 48-well arrays per plate. Plates with transfected cells were incubated for 18–20 h at 37 °C/5% CO2. A screen of each tracer across the entire library using two different concentrations requires duplicate plates of transfected cells. Depending on the number of tracers being screened, transfections can be scaled up using the same ratios. The next day, for each tracer, four 20× screening solutions in tracer dilution buffer (Promega) were prepared: two duplicates at final concentration of 20 μM and two duplicates at a final concentration of 2 μM. A competing unmodified compound was added to one of each duplicate at a final concentration of 400 μM. The four resulting solutions were diluted 4-fold in Opti-MEM without serum or phenol red to generate 5× solutions (5 µM and 0.5 µM tracer +/− 100 μM competing compound). To screen the library, a BioTek MultiFlo FX liquid dispenser was used to dispense 22.5 µL of tracer solution to the top 4 rows and 22.5 µL tracer + competing compound solution to the 4 bottom rows. Plates were briefly mixed on an orbital shaker and incubated for 1.5 h at room temperature. […]
# [2] = target: T2, PTGIR (Homo sapiens, UniProt P43119); assay: NanoBRET screen HiBiT-PTGIR in HEK293
# T2 construct: purchased Promega (in-house HiBiT-GPCR construct library, NanoBRET)
# T2 sequence (P43119 whole entry): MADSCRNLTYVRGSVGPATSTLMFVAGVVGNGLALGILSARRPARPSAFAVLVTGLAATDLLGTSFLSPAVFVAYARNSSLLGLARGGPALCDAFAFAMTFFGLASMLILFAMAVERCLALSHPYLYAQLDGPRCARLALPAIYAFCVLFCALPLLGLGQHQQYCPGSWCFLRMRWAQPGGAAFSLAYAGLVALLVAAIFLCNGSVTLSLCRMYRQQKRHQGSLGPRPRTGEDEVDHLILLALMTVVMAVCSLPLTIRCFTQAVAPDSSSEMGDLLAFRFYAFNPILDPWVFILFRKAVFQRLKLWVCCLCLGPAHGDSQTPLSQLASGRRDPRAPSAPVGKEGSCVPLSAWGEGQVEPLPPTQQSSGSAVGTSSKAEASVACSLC
# Procedure: as §1, §2
# [3] = target: T3, GRM4 (Homo sapiens, UniProt Q14833); assay: NanoBRET screen HiBiT-GRM4 in HEK293
# T3 construct: purchased Promega (in-house HiBiT-GPCR construct library, NanoBRET)
# T3 sequence (Q14833 33-912): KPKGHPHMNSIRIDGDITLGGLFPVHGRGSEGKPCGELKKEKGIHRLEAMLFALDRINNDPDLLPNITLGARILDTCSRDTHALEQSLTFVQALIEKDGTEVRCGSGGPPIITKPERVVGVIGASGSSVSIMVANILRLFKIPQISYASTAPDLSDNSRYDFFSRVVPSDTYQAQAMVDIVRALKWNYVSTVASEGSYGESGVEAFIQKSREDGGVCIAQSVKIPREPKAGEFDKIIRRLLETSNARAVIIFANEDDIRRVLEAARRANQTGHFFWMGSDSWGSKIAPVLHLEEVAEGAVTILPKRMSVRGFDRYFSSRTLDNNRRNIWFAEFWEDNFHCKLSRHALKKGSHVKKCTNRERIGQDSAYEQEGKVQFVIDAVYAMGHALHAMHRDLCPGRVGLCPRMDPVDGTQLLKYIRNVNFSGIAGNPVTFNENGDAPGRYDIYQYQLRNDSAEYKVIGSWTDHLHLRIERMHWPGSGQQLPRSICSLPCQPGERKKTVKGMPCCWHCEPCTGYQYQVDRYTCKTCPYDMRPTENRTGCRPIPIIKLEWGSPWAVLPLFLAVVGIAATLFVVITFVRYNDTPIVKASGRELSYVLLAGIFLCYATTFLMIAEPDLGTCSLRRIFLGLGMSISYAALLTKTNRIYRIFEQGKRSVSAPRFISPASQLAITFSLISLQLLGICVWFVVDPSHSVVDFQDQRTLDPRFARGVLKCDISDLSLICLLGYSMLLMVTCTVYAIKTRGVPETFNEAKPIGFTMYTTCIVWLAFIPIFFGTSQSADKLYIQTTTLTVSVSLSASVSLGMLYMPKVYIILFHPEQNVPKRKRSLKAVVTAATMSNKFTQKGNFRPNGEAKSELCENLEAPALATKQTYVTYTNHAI
# Procedure: as §1, §2
smiles,measurement,setting,value
O=C(CCc1ccc2n1[B-](F)(F)[N+]1=C(c3ccc[nH]3)C=CC1=C2)NCc1ccc(C(=O)NCCOCCC(=O)N[C@@H]2CC[C@@]3(O)[C@H]4Cc5ccc(O)c6c5[C@@]3(CCN4CC3CC3)[C@H]2O6)cc1 [Naltrexone-3-NB590],NanoBRET Fold Response,"[1]; OXTR, tracer 0.1μM",0.99
same,NanoBRET Fold Response,"[1]; OXTR, tracer 1μM",0.91
same,NanoBRET Fold Response,"[2]; PTGIR, tracer 0.1μM",0.98
same,NanoBRET Fold Response,"[2]; PTGIR, tracer 1μM",1.17
same,NanoBRET Fold Response,"[3]; GRM4, tracer 0.1μM",0.75
same,NanoBRET Fold Response,"[3]; GRM4, tracer 1μM",1.05
CN1CCN(C2=Nc3cc(Cl)ccc3N(CC(=O)NCCOCCOCCOCCOCCNC(=O)CCc3ccc4n3[B-](F)(F)[N+]3=C(c5ccc[nH]5)C=CC3=C4)c3ccccc32)CC1 [Clozapine-c-2-NB590],NanoBRET Fold Response,"[1]; OXTR, 0.1μM tracer",0.97
same,NanoBRET Fold Response,"[1]; OXTR, 1μM tracer",0.96
same,NanoBRET Fold Response,"[2]; PTGIR, 0.1μM tracer",0.96
same,NanoBRET Fold Response,"[2]; PTGIR, 1μM tracer",1.09
same,NanoBRET Fold Response,"[3]; GRM4, 0.1μM tracer",0.94
same,NanoBRET Fold Response,"[3]; GRM4, 1μM tracer",1.14
O=C(CCOCCOCCOCCOCCNC(=O)CCc1ccc2n1[B-](F)(F)[N+]1=C(c3ccc[nH]3)C=CC1=C2)NCCCN1CCN(C2=Nc3cc(Cl)ccc3Nc3ccccc32)CC1 [Clozapine-a-2-NB590],NanoBRET Fold Response,"[1]; OXTR, 0.1μM tracer",1.03
same,NanoBRET Fold Response,"[1]; OXTR, 1μM tracer",1.01
same,NanoBRET Fold Response,"[2]; PTGIR, 0.1μM tracer",1.04
same,NanoBRET Fold Response,"[2]; PTGIR, 1μM tracer",0.98
same,NanoBRET Fold Response,"[3]; GRM4, 0.1μM tracer",1.02
same,NanoBRET Fold Response,"[3]; GRM4, 1μM tracer",0.99
CCOC(=O)c1cc(C#N)c(N2CCC(C(=O)NS(=O)(=O)Cc3ccccc3/C=C/C(=O)NCCNC(=O)CCc3ccc4n3[B-](F)(F)[N+]3=C(c5ccc[nH]5)C=CC3=C4)CC2)nc1C [AZD1283-1-NB590],NanoBRET Fold Response,"[1]; OXTR, 0.1μM",1.07
same,NanoBRET Fold Response,"[1]; OXTR, 1μM",1.07
same,NanoBRET Fold Response,"[2]; PTGIR, 0.1μM",1.04
same,NanoBRET Fold Response,"[2]; PTGIR, 1μM",1.07
same,NanoBRET Fold Response,"[3]; GRM4, 0.1μM",1.06
same,NanoBRET Fold Response,"[3]; GRM4, 1μM",1.07
COc1ccc2[nH]c(-c3ccc(CNC(=O)CCOCCOCCOCCOCCNC(=O)CCc4ccc5n4[B-](F)(F)[N+]4=C(c6ccc[nH]6)C=CC4=C5)cc3)c(CCNC(C)=O)c2n1 [AzomelatoninICO9-2-NB590],NanoBRET Fold Response,[1]; 0.1μM tracer,0.99
same,NanoBRET Fold Response,[1]; 1μM tracer,0.87
same,NanoBRET Fold Response,[2]; 0.1μM tracer,1.03
same,NanoBRET Fold Response,[2]; 1μM tracer,0.98
same,NanoBRET Fold Response,[3]; 0.1μM tracer,0.97
same,NanoBRET Fold Response,[3]; 1μM tracer,0.85
CCCn1c(=O)c2[nH]c(-c3ccc(OCC(=O)NCCNC(=O)CCOCCNC(=O)c4ccc(CNC(=O)CCc5ccc6n5[B-](F)(F)[N+]5=C(c7ccc[nH]7)C=CC5=C6)cc4)cc3)nc2n(CCC)c1=O [XAC-3-NB590],NanoBRET Fold Response,"[1]; OXTR, tracer 0.1μM",1.04
same,NanoBRET Fold Response,"[1]; OXTR, tracer 1μM",0.98
same,NanoBRET Fold Response,"[2]; PTGIR, tracer 0.1μM",0.99
same,NanoBRET Fold Response,"[2]; PTGIR, tracer 1μM",1.05
same,NanoBRET Fold Response,"[3]; GRM4, tracer 0.1μM",1.03
same,NanoBRET Fold Response,"[3]; GRM4, tracer 1μM",1.07
COc1ccccc1N1CCN(CCCCN2C(=O)c3ccc(CNC(=O)CCOCCNC(=O)c4ccc(CNC(=O)CCc5ccc6n5[B-](F)(F)[N+]5=C(c7ccc[nH]7)C=CC5=C6)cc4)cc3C2=O)CC1 [NAN-190-3-NB590],NanoBRET Fold Response,"[1]; OXTR, tracer 0.1μM",1.10
same,NanoBRET Fold Response,"[1]; OXTR, tracer 1μM",1.05
same,NanoBRET Fold Response,"[2]; PTGIR, tracer 0.1μM",0.95
same,NanoBRET Fold Response,"[2]; PTGIR, tracer 1μM",1.01
same,NanoBRET Fold Response,"[3]; GRM4, tracer 0.1μM",1.14
same,NanoBRET Fold Response,"[3]; GRM4, tracer 1μM",1.33
O=C(CCc1ccc2n1[B-](F)(F)[N+]1=C(c3ccc[nH]3)C=CC1=C2)NCc1ccc(C(=O)NCCOCCOCCNCC(O)COc2cccc3ccccc23)cc1 (stereo not shown) [Propranolol-3-NB590],NanoBRET Fold Response,"[1]; OXTR, 0.1μM",1.04
same,NanoBRET Fold Response,"[1]; OXTR, 1μM",0.98
same,NanoBRET Fold Response,"[2]; PTGIR, 0.1μM",1.05
same,NanoBRET Fold Response,"[2]; PTGIR, 1μM",0.97
same,NanoBRET Fold Response,"[3]; GRM4, 0.1μM",1.11
same,NanoBRET Fold Response,"[3]; GRM4, 1μM",1.04
COc1ccc2c(n1)c(CCNC(C)=O)cn2CCNC(=O)CCc1ccc2n1[B-](F)(F)[N+]1=C(c3ccc[nH]3)C=CC1=C2 [Azamelatonin-1-NB590],NanoBRET Fold Response,[1]; 0.1μM tracer,1.11
same,NanoBRET Fold Response,[1]; 1μM tracer,0.94
same,NanoBRET Fold Response,[2]; 0.1μM tracer,0.94
same,NanoBRET Fold Response,[2]; 1μM tracer,1.06
same,NanoBRET Fold Response,[3]; 0.1μM tracer,1.09
same,NanoBRET Fold Response,[3]; 1μM tracer,0.78
O=C(CCOCCOCCOCCOCCNC(=O)CCc1ccc2n1[B-](F)(F)[N+]1=C(c3ccc[nH]3)C=CC1=C2)NCCCN1CCN(C2=Nc3ccccc3Oc3ccc(Cl)cc32)CC1 [Loxapine-a-2-NB590],NanoBRET Fold Response,"[1]; OXTR, tracer 0.1μM",0.97
same,NanoBRET Fold Response,"[1]; OXTR, tracer 1μM",1.02
same,NanoBRET Fold Response,"[2]; PTGIR, tracer 0.1μM",0.99
same,NanoBRET Fold Response,"[2]; PTGIR, tracer 1μM",1.04
same,NanoBRET Fold Response,"[3]; GRM4, tracer 0.1μM",1.04
same,NanoBRET Fold Response,"[3]; GRM4, tracer 1μM",0.99
COc1ccccc1N1CCN(CCCCN2C(=O)c3ccc(CNC(=O)CCOCCOCCOCCOCCNC(=O)CCc4ccc5n4[B-](F)(F)[N+]4=C(c6ccc[nH]6)C=CC4=C5)cc3C2=O)CC1 [NAN-190-2-NB590],NanoBRET Fold Response,"[1]; OXTR, tracer 0.1μM",0.96
same,NanoBRET Fold Response,"[2]; PTGIR, tracer 0.1μM",0.99
same,NanoBRET Fold Response,"[2]; PTGIR, tracer 1μM",1.02
same,NanoBRET Fold Response,"[3]; GRM4, tracer 0.1μM",0.98
same,NanoBRET Fold Response,"[3]; GRM4, tracer 1μM",0.97
CC(C)N(CC[C@H](c1ccccc1)c1cc(CCNC(=O)c2ccc(CNC(=O)CCc3ccc4n3[B-](F)(F)[N+]3=C(c5ccc[nH]5)C=CC3=C4)cc2)ccc1O)C(C)C [Tolterodine-BZ-NB590],NanoBRET Fold Response,"[1]; OXTR, tracer 0.1μM",1.02
same,NanoBRET Fold Response,"[1]; OXTR, tracer 1μM",1.01
same,NanoBRET Fold Response,"[2]; PTGIR, tracer 0.1μM",1.00
same,NanoBRET Fold Response,"[2]; PTGIR, tracer 1μM",1.04
same,NanoBRET Fold Response,"[3]; GRM4, tracer 0.1μM",1.02
same,NanoBRET Fold Response,"[3]; GRM4, tracer 1μM",0.99
CN(C)CCC=C1c2ccccc2CCc2ccc(C(=O)NCCNC(=O)CCOCCOCCOCCOCCNC(=O)CCc3ccc4n3[B-](F)(F)[N+]3=C(c5ccc[nH]5)C=CC3=C4)cc21 [Amitriptyline-a-2-NB590],NanoBRET Fold Response,[1]; tracer at 0.1μM,0.99
same,NanoBRET Fold Response,[1]; tracer at 1μM,1.09
